Measured values as given in patent US20050009924A1 (priority 2003, published 2005).

Experiments:
[1] = test system: human hepatoma G2 cells; assay: Cytotoxicity assay (XTT colorimetric), Hep G2; type: cell-based; details: Homo sapiens, HepG2; 48 h of drug exposure
[2] = test system: rat glioma C6 cells; assay: Cytotoxicity assay (XTT colorimetric), C6 cells; type: cell-based; details: Rattus norvegicus, C6; 48 h of drug exposure
[3] = test system: hepatitis B virus transfected hepatoma cell lines, HepG 2.2.15 cells; assay: Cytotoxicity assay, 2.2.15 cells; type: cell-based, human; details: Homo sapiens, HepG2.2.15; 48 h of drug exposure
[4] = test system: transcriptional activity of hTERT; assay: SEAP reporter assay of hTERT expression, PhTERT-SEAP (hTERT-BJ1); type: cell-based, human; details: PhTERT-SEAP (hTERT-BJ1)
How it was run: (§1)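 H1299 or hTERT-BJ1 cells stably carrying hTERT- or CMV-promoter–SEAP constructs (G418-selected), treated with compounds for 24 h at 37 °C. Media heated 65 °C for 10 min, mixed with diethanolamine buffer and 12 mM p-nitrophenyl phosphate; SEAP activity taken as the rate of A405 increase.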

[5] = test system: transcriptional activity of hTERT; assay: SEAP reporter assay of hTERT expression, PhTERT-SEAP (H1299); type: cell-based, human; details: PhTERT-SEAP(hTERT-H1299)
How it was run: as §1

[6] = MTT relative viability, PhTERT-SEAP (H1299) cells; details: human
[7] = MTT relative viability, PhTERT-SEAP (hTERT-BJ1) cells; details: human
[8] = hTERT-BJ1 cells stably transfected with PhTERT-SEAP reporter
[9] = hTERT-BJ1 cells, stable PhTERT-SEAP reporter clone
[10] = Homo sapiens, 2.3 μM, read-out: Relative SEAP activity (%)
[11] = Homo sapiens, 23 μM, read-out: Relative SEAP activity (%)
[12] = Homo sapiens, 238 μM, read-out: Relative SEAP activity (%)
[13] = Homo sapiens, NCI-H1299, 2.3 μM, read-out: Relative SEAP activity (%)
[14] = Homo sapiens, NCI-H1299, 23 μM, read-out: Relative SEAP activity (%)
[15] = Homo sapiens, NCI-H1299, 238 μM, read-out: Relative SEAP activity (%)
[16] = Homo sapiens, 2.1 μM, read-out: Relative SEAP activity (%)
[17] = Homo sapiens, 21 μM, read-out: Relative SEAP activity (%)
[18] = Homo sapiens, 218 μM, read-out: Relative SEAP activity (%)
[19] = Homo sapiens, NCI-H1299, 2.1 μM, read-out: Relative SEAP activity (%)
[20] = Homo sapiens, NCI-H1299, 21 μM, read-out: Relative SEAP activity (%)
[21] = Homo sapiens, NCI-H1299, 218 μM, read-out: Relative SEAP activity (%)

Structure (SMILES): O=C(CCl)Nc1ccc(NC(=O)CCl)c2c1C(=O)c1ccccc1C2=O [VI1, 1,4-Bis(chloroacetamido)-9,10-anthracenedione]
- IC50 [1]: > 20 µM
- IC50 [2]: > 20 µM
- IC50 [3]: > 20 µM
- SEAP/vibility ([4]; 2.5 μM): 1.23
- SEAP/vibility ([4]; 25 μM): 1.53
- SEAP/vibility ([4]; 255 μM): 2.76
- activity at 2.5 µM ([4]; Homo sapiens, 2.5 μM, read-out: Relative SEAP activity (%)): 123 ± 16.8%
- activity at 25 µM ([4]; Homo sapiens, 25 μM, read-out: Relative SEAP activity (%)): 129 ± 17.7%
- activity at 255 µM ([4]; Homo sapiens, 255 μM, read-out: Relative SEAP activity (%)): 121 ± 10.9%
- SEAP/vibility ([5]; 2.5 μM): 0.98
- SEAP/vibility ([5]; 25 μM): 1.14
- SEAP/vibility ([5]; 255 μM): 4.66
- activity at 2.5 µM ([5]; Homo sapiens, NCI-H1299, 2.5 μM, read-out: Relative SEAP activity (%)): 102 ± 5.3%
- activity at 25 µM ([5]; Homo sapiens, NCI-H1299, 25 μM, read-out: Relative SEAP activity (%)): 110 ± 8.8%
- activity at 255 µM ([5]; Homo sapiens, NCI-H1299, 255 μM, read-out: Relative SEAP activity (%)): 97 ± 7.1%
- melting point: 285 to 287 °C
- viability at 48 h, 2.5 µM [6]: 104 ± 5.5%
- viability at 48 h, 25 µM [6]: 96 ± 3.8%
- viability at 48 h, 255 µM [6]: 21 ± 1.5%
- viability at 48 h, 2.5 µM [7, 8]: 101 ± 2.7%
- viability at 48 h, 25 µM [7, 8]: 84 ± 6.3%
- viability at 48 h, 255 µM [7, 9]: 44 ± 4.7%

Structure (SMILES): O=C(CCCl)Nc1ccc(NC(=O)CCCl)c2c1C(=O)c1ccccc1C2=O [VI7, 1,4-Bis(3-chloropropionamido)-9,10-anthracenedione]
- IC50 [1]: > 20 µM
- IC50 [2]: > 20 µM
- IC50 [3]: > 20 µM
- SEAP/vibility ([4]; 2.3 μM): 0.36
- SEAP/vibility ([4]; 23 μM): 0.48
- SEAP/vibility ([4]; 238 μM): 0.23
- activity at 2.3 µM [4, 10]: 36 ± 12.1%
- activity at 23 µM [4, 11]: 40 ± 10.8%
- activity at 238 µM [4, 12]: 14 ± 11.8%
- SEAP/vibility ([5]; 2.3 μM): 0.88
- SEAP/vibility ([5]; 23 μM): 1.28
- SEAP/vibility ([5]; 238 μM): 2.30
- activity at 2.3 µM [5, 13]: 87 ± 2.3%
- activity at 23 µM [5, 14]: 87 ± 3.1%
- activity at 238 µM [5, 15]: 68 ± 5.3%
- melting point: 230 to 231 °C
- viability at 48 h, 2.3 µM [6]: 99 ± 6%
- viability at 48 h, 23 µM [6]: 68 ± 2.4%
- viability at 48 h, 238 µM [6]: 30 ± 3.8%
- viability at 48 h, 2.3 µM [7, 9]: 102 ± 4.1%
- viability at 48 h, 23 µM [7, 9]: 82 ± 8.2%
- viability at 48 h, 238 µM [7, 9]: 60 ± 2.5%

Structure (SMILES): CC(Cl)C(=O)Nc1ccc(NC(=O)C(C)Cl)c2c1C(=O)c1ccccc1C2=O (stereo not drawn) [VI9, 1,4-Bis(2-chloropropionamido)-9,10-anthracenedione]
- IC50 [1]: > 20 µM
- IC50 [2]: > 20 µM
- IC50 [3]: > 20 µM
- SEAP/vibility ([4]; 2.3 μM): 0.97
- SEAP/vibility ([4]; 23 μM): 1.49
- SEAP/vibility ([4]; 238 μM): 1.68
- activity at 2.3 µM [4, 10]: 91 ± 10.8%
- activity at 23 µM [4, 11]: 101 ± 8.4%
- activity at 238 µM [4, 12]: 81 ± 8.5%
- SEAP/vibility ([5]; 2.3 μM): 0.96
- SEAP/vibility ([5]; 23 μM): 1.40
- SEAP/vibility ([5]; 238 μM): 7.82
- activity at 2.3 µM [5, 13]: 106 ± 5.5%
- activity at 23 µM [5, 14]: 109 ± 1%
- activity at 238 µM [5, 15]: 85 ± 5.3%
- melting point: 233 to 235 °C
- viability at 48 h, 2.3 µM [6]: 111 ± 5.5%
- viability at 48 h, 23 µM [6]: 77 ± 3.4%
- viability at 48 h, 238 µM [6]: 11 ± 1.4%
- viability at 48 h, 2.3 µM [7, 9]: 94 ± 10.4%
- viability at 48 h, 23 µM [7, 9]: 68 ± 8.2%
- viability at 48 h, 238 µM [7, 9]: 48 ± 2.3%

Structure (SMILES): O=C1c2ccccc2C(=O)c2c(NC(=O)C3CCCCC3)ccc(NC(=O)C3CCCCC3)c21 [VI17, 1,4-Bis(cyclohexaneamido)-9,10-anthracenedione]
- IC50 [1]: > 20 µM
- IC50 [2]: > 20 µM
- IC50 [3]: > 20 µM
- SEAP/vibility ([4]; 2.1 μM): 0.64
- SEAP/vibility ([4]; 21 μM): 0.44
- SEAP/vibility ([4]; 218 μM): 0.68
- activity at 2.1 µM [4, 16]: 65 ± 16%
- activity at 21 µM [4, 17]: 42 ± 24.3%
- activity at 218 µM [4, 18]: 56 ± 16.3%
- SEAP/vibility ([5]; 2.1 μM): 1.00
- SEAP/vibility ([5]; 21 μM): 1.05
- SEAP/vibility ([5]; 218 μM): 1.38
- activity at 2.1 µM [5, 19]: 104 ± 1.8%
- activity at 21 µM [5, 20]: 100 ± 6.2%
- activity at 218 µM [5, 21]: 93 ± 2.5%
- melting point: 309 to 310 °C
- viability at 48 h, 2.1 µM [6]: 104 ± 6.4%
- viability at 48 h, 21 µM [6]: 96 ± 5.8%
- viability at 48 h, 218 µM [6]: 67 ± 1.5%
- viability at 48 h, 218 µM [7, 8]: 83 ± 4.2%
- viability at 48 h, 2.1 µM [7, 9]: 102 ± 3%
- viability at 48 h, 21 µM [7, 9]: 97 ± 2.4%

Structure (SMILES): O=C(CCC1CCCC1)Nc1ccc(NC(=O)CCC2CCCC2)c2c1C(=O)c1ccccc1C2=O [VI19, 1,4-Bis(3-cyclopentanepropionamido)-9,10-anthracenedione]
- IC50 [1]: > 20 µM
- IC50 [2]: > 20 µM
- IC50 [3]: > 20 µM
- SEAP/vibility ([4]; 2.0 μM): 0.84
- SEAP/vibility ([4]; 20 μM): 0.87
- SEAP/vibility ([4]; 205 μM): 0.87
- activity at 2 µM ([4]; Homo sapiens, 2.0 μM, read-out: Relative SEAP activity (%)): 90 ± 9.2%
- activity at 20 µM ([4]; Homo sapiens, 20 μM, read-out: Relative SEAP activity (%)): 87 ± 5.5%
- activity at 205 µM ([4]; Homo sapiens, 205 μM, read-out: Relative SEAP activity (%)): 87 ± 8%
- SEAP/vibility ([5]; 2.0 μM): 1.06
- SEAP/vibility ([5]; 20 μM): 1.09
- SEAP/vibility ([5]; 205 μM): 1.15
- activity at 2 µM ([5]; Homo sapiens, NCI-H1299, 2.0 μM, read-out: Relative SEAP activity (%)): 111 ± 9.4%
- activity at 20 µM ([5]; Homo sapiens, NCI-H1299, 20 μM, read-out: Relative SEAP activity (%)): 116 ± 8%
- activity at 205 µM ([5]; Homo sapiens, NCI-H1299, 205 μM, read-out: Relative SEAP activity (%)): 109 ± 9.2%
- melting point: 166 to 167 °C
- viability at 48 h, 2 µM [6]: 105 ± 2.1%
- viability at 48 h, 20 µM [6]: 106 ± 4.7%
- viability at 48 h, 205 µM [6]: 95 ± 1.3%
- viability at 48 h, 205 µM [7, 8]: 100 ± 5.8%
- viability at 48 h, 2 µM [7, 9]: 107 ± 3.6%
- viability at 48 h, 20 µM [7, 9]: 101 ± 4.7%

Structure (SMILES): O=C(Nc1ccc(NC(=O)c2cccs2)c2c1C(=O)c1ccccc1C2=O)c1cccs1 [VI22, 1,4-Bis(2-thiopheneamido)-9,10-anthracenedione]
- IC50 [1]: > 20 µM
- IC50 [2]: > 20 µM
- IC50 [3]: > 20 µM
- SEAP/vibility ([4]; 2.1 μM): 0.80
- SEAP/vibility ([4]; 21 μM): 0.93
- SEAP/vibility ([4]; 218 μM): 1.07
- activity at 2.1 µM [4, 16]: 94 ± 20.2%
- activity at 21 µM [4, 17]: 92 ± 17.4%
- activity at 218 µM [4, 18]: 90 ± 22.7%
- SEAP/vibility ([5]; 2.1 μM): 0.93
- SEAP/vibility ([5]; 21 μM): 0.98
- SEAP/vibility ([5]; 218 μM): 1.16
- activity at 2.1 µM [5, 19]: 100 ± 3.1%
- activity at 21 µM [5, 20]: 105 ± 5.9%
- activity at 218 µM [5, 21]: 97 ± 4.9%
- melting point: 321 to 322 °C
- viability at 48 h, 2.1 µM [6]: 108 ± 3.7%
- viability at 48 h, 21 µM [6]: 107 ± 8.5%
- viability at 48 h, 218 µM [6]: 84 ± 4.3%
- viability at 48 h, 218 µM [7, 8]: 84 ± 6.9%
- viability at 48 h, 2.1 µM [7, 9]: 118 ± 10.6%
- viability at 48 h, 21 µM [7, 9]: 99 ± 8.2%
